Results on one compound are retold here after patent US12193972B2, “Intraocular drug delivery systems and methods of use” (SpyGlass Pharma, Inc., priority 2022, dated 2025).

The nature of series [1]: daily release or elution of Bimatoprost in vitro versus time (FIG. 8). Type of series: physicochemical. As to conditions: four-hundred-day study.
A short description of series [2]: Bimatoprost sampled in the aqueous humor of dogs over time (FIG. 9). Type of series: in vivo. The text has this: In this example, there was a low dose group of dogs (Grp 1), a mid-dose group of dogs (Grp 2), a high dose group of dogs (Grp 3), and a placebo group of dogs (Grp 4).

As to `CCNC(=O)CCC/C=C\C[C@@H]1[C@@H](/C=C/[C@@H](O)CCc2ccccc2)[C@H](O)C[C@@H]1O` [Bimatoprost], the “release kinetics over the study” value in series [1] is “essentially a zero-order and/or a steady state elution rate”. Also, in series [1] (drug delivery component), the average release rate entry is “less than 0.100 micrograms per day”. Further, the “level of Bimatoprost in the aqueous humor, elution kinetics” value in series [2] (low dose (Grp 1), mid-dose (Grp 2) and high dose (Grp 3) groups, study period of about one hundred thirteen days) is given as “zero-order elution rate”. Moreover, in series [2] (low, mid and high dose groups), the “mean measurements of Bimatoprost in the aqueous humor, dose dependence” value is “increased with the higher doses”.
